According to the supplement of paper PMC12533247:
± gives the standard deviation of the averaged measurements.

Tests used:
primary keratinocytes = assay: % change in live cells vs DMSO control; higher = less cytotoxic; conditions: time (h post treatment): 20
Description: (§1)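 Cytotoxicity in uninfected 2D primary donor keratinocytes (20 h post treatment) and fibroblasts (48 h post treatment), measured with NucSpot live/dead dyes on IncuCyte. Live cells are normalised to the 0.2% DMSO control and shown as % change. Three biological replicates for each of donors 3, 4 and 5.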

[1] = system: primary dermal fibroblasts; assay: as above; conditions: time (h post treatment): 48
Description: as §1

[2] = system: HSV-1 K26-GFP infected 3D skin equivalent; assay: % activity on HSV-1 GFP signal (0 = infected DMSO control, -100 = uninfected control); higher = higher signal (negative = inhibition / toxicity); conditions: time (h post infection): 48
Description: (§2)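 Triplicate dose-response (0.04 to 10 uM) of 11 top compounds in 3D bioprinted skin equivalents (submerged and ALI models) infected with GFP-HSV-1 K26 at MOI 0.1 and fixed at 48 hpi. GFP (virus) and tdTomato (fibroblast viability) signals are normalised to per-plate controls.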

[3] = system: HSV-1 K26-GFP infected primary human skin cells; assay: % change of HSV-1 GFP signal vs untreated infected cells; higher = less antiviral inhibition
Description: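 2D primary donor-derived keratinocytes (read at 20 hpi) and donor-matched dermal fibroblasts (read at 48 hpi) infected with GFP-HSV-1 K26 at MOI 1 and treated 1 h later with compound dilutions. IncuCyte GFP integrated intensity is normalised by subtracting mock-infected wells and dividing by untreated infected wells, shown as % change (-100 = full inhibition).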

[4] = system: HSV-1 K26-GFP infected 3D skin equivalent; assay: % change of tdTomato fibroblast signal relative to infected DMSO control; higher = higher signal (negative = inhibition / toxicity); conditions: time (h post infection): 48
Description: as §2

CC1(C)CC(=O)c2c(C(F)(F)F)nn(-c3ccc(C(N)=O)c(N[C@H]4CC[C@H](O)CC4)c3)c2C1 [SNX-2112]
Conditions	% activity on HSV-1 GFP signal, [2] [%]	% change in live cells, [1] [%]	% change in live cells, primary keratinocytes [%]	% change of tdTomato fibroblast signal, [4] [%]
0.041152 µM, model: ALI	-92.8 ± 5	–	–	0.975 ± 12
0.041152 µM, model: submerged	-58.7 ± 8.8	–	–	-4.63 ± 9.5
0.082305 µM, donor: 3	–	-17.7 ± 12	-14.3 ± 3.2	–
0.082305 µM, donor: 4	–	14.3 ± 4	4.33 ± 5.7	–
0.082305 µM, donor: 5	–	9 ± 19	-22 ± 11	–
0.123457 µM, model: ALI	-99.7 ± 5.3	–	–	-7.26 ± 3.1
0.123457 µM, model: submerged	-81.7 ± 5.9	–	–	-2.18 ± 9.6
0.246914 µM, donor: 3	–	-20.7 ± 12	-38.3 ± 1.5	–
0.246914 µM, donor: 4	–	4.67 ± 5.1	-29 ± 21	–
0.246914 µM, donor: 5	–	-1.67 ± 24	-60.7 ± 4.5	–
0.37037 µM, model: ALI	-98.9 ± 6.7	–	–	-17.9 ± 3.2
0.37037 µM, model: submerged	-98.1 ± 7.8	–	–	-23.3 ± 11
0.740741 µM, donor: 3	–	-23 ± 14	-40.3 ± 5.7	–
0.740741 µM, donor: 4	–	0.333 ± 10	-53.3 ± 14	–
0.740741 µM, donor: 5	–	-1.67 ± 29	-72.3 ± 2.5	–
1.111111 µM, model: ALI	-103 ± 4.6	–	–	-33.5 ± 9.5
1.111111 µM, model: submerged	-101 ± 4.8	–	–	-52.2 ± 3.6
2.22222 µM, donor: 3	–	-22.3 ± 14	-43.7 ± 4.5	–
2.22222 µM, donor: 4	–	0.667 ± 8.6	-58.7 ± 11	–
2.22222 µM, donor: 5	–	-8.67 ± 26	-77 ± 2	–
3.33333 µM, model: ALI	-98.4 ± 6	–	–	-36.3 ± 4.9
3.33333 µM, model: submerged	-105 ± 3.8	–	–	-55 ± 2.7
6.66667 µM, donor: 3	–	-22.7 ± 15	-49 ± 7.5	–
6.66667 µM, donor: 4	–	6.33 ± 9.4	-70 ± 6.2	–
6.66667 µM, donor: 5	–	-10.3 ± 23	-79 ± 3.5	–
10 µM, model: ALI	-107 ± 7.2	–	–	-32.3 ± 6.5
10 µM, model: submerged	-102 ± 6.5	–	–	-50.9 ± 1.7
20 µM, donor: 3	–	-22.7 ± 16	-59.3 ± 19	–
20 µM, donor: 4	–	7.33 ± 12	-74 ± 1.7	–
20 µM, donor: 5	–	-13.7 ± 20	-76.7 ± 5.5	–
60 µM, donor: 3	–	-21 ± 27	-79.3 ± 3.8	–
60 µM, donor: 4	–	1 ± 18	-74 ± 14	–
60 µM, donor: 5	–	-32.3 ± 9.3	-57.7 ± 5.5	–

% change of HSV-1 GFP signal [%], [3]
Conditions	0.001 µM	0.003 µM	0.0091 µM	0.0274 µM	0.0823 µM	0.2469 µM	0.7407 µM	2.2222 µM	6.6667 µM	20 µM
cell type: primary dermal fibroblasts, donor: 5, time (h post infection): 48	–	-7.73 ± 2.1	-15.6 ± 11	-26.2 ± 14	-67.5 ± 16	-95.5 ± 4.4	-98.7 ± 1.3	-98.8 ± 1.2	-99.29 ± 0.7	-98.8 ± 1.5
cell type: primary keratinocytes, donor: 3, time (h post infection): 20	9.13 ± 14	13.4 ± 18	18.9 ± 2.4	18.3 ± 9.1	-27.7 ± 20	-93.6 ± 2.1	-99.06 ± 0.93	-99.56 ± 0.19	-99.47 ± 0.68	-99.7 ± 0.12
cell type: primary keratinocytes, donor: 4, time (h post infection): 20	9.33 ± 10	1.99 ± 7.4	-3 ± 12	-5.23 ± 6.6	-58 ± 5.7	-98.23 ± 0.39	-99.906 ± 0.026	-100.1 ± 0.19	-100.02 ± 0.027	-100 ± 0.14
cell type: primary keratinocytes, donor: 5, time (h post infection): 20	8.24 ± 6.6	-1.8 ± 5.6	-0.244 ± 3.4	-15.1 ± 6.1	-81.52 ± 0.11	-98.96 ± 0.45	-99.957 ± 0.0052	-99.916 ± 0.066	-99.948 ± 0.011	-99.936 ± 0.076

C=CC(=O)N1CC/C(=C\c2ccc(F)c([N+](=O)[O-])c2)C(=O)/C(=C/c2ccc(F)c([N+](=O)[O-])c2)C1 [VLX1570]
Conditions	% activity on HSV-1 GFP signal, [2] [%]	% change in live cells, [1] [%]	% change in live cells, primary keratinocytes [%]	% change of tdTomato fibroblast signal, [4] [%]
0.041152 µM, model: ALI	12.8 ± 28	–	–	-0.238 ± 6.3
0.041152 µM, model: submerged	-7.34 ± 8.2	–	–	0.174 ± 12
0.082305 µM, donor: 3	–	-13 ± 9.6	-11.3 ± 3.2	–
0.082305 µM, donor: 4	–	2.33 ± 4	-13.3 ± 11	–
0.082305 µM, donor: 5	–	2 ± 9.2	-6.33 ± 2.5	–
0.123457 µM, model: ALI	-18.6 ± 41	–	–	-3.26 ± 3.5
0.123457 µM, model: submerged	-4.05 ± 10	–	–	-4.91 ± 16
0.246914 µM, donor: 3	–	-15.3 ± 9.5	-24 ± 11	–
0.246914 µM, donor: 4	–	0 ± 3	-18 ± 24	–
0.246914 µM, donor: 5	–	4.67 ± 17	-10 ± 14	–
0.37037 µM, model: ALI	-96 ± 7.7	–	–	-1.14 ± 15
0.37037 µM, model: submerged	-5.03 ± 10	–	–	-4.63 ± 13
0.740741 µM, donor: 3	–	-24 ± 6.1	-37.7 ± 22	–
0.740741 µM, donor: 4	–	-1.33 ± 6.1	-13 ± 14	–
0.740741 µM, donor: 5	–	4.33 ± 22	-11 ± 16	–
1.111111 µM, model: ALI	-97.3 ± 12	–	–	-12.1 ± 11
1.111111 µM, model: submerged	-4.45 ± 10	–	–	-15 ± 11
2.22222 µM, donor: 3	–	-46.7 ± 4.7	-54 ± 28	–
2.22222 µM, donor: 4	–	-3 ± 7.9	-9.33 ± 30	–
2.22222 µM, donor: 5	–	-1.67 ± 24	-10.7 ± 7.6	–
3.33333 µM, model: ALI	-103 ± 6.2	–	–	-17.4 ± 13
3.33333 µM, model: submerged	-17.6 ± 2.2	–	–	-33.6 ± 7.4
6.66667 µM, donor: 3	–	-100 ± 1.7	-58.3 ± 14	–
6.66667 µM, donor: 4	–	-3 ± 17	-66 ± 15	–
6.66667 µM, donor: 5	–	-20.7 ± 19	-39 ± 11	–
10 µM, model: ALI	-101 ± 7.7	–	–	-25.4 ± 10
10 µM, model: submerged	-55.5 ± 12	–	–	-48 ± 6.9
20 µM, donor: 3	–	-101.3 ± 0.58	-85.3 ± 12	–
20 µM, donor: 4	–	-44 ± 20	-70 ± 14	–
20 µM, donor: 5	–	-98 ± 1	-74.7 ± 4	–
60 µM, donor: 3	–	-98.7 ± 1.5	-95 ± 1.7	–
60 µM, donor: 4	–	-116 ± 4.6	-99.33 ± 0.58	–
60 µM, donor: 5	–	-96.7 ± 1.5	-97.67 ± 0.58	–

% change of HSV-1 GFP signal [%], [3]
Conditions	0.001 µM	0.003 µM	0.0091 µM	0.0274 µM	0.0823 µM	0.2469 µM	0.7407 µM	2.2222 µM	6.6667 µM	20 µM
cell type: primary dermal fibroblasts, donor: 5, time (h post infection): 48	1.14 ± 3.5	-5.38 ± 5.4	-8.21 ± 6.5	-7.07 ± 4.7	-8.61 ± 9	-9.37 ± 10	-7.7 ± 4.3	-10.9 ± 3.1	-99.906 ± 0.052	-99.87 ± 0.13
cell type: primary keratinocytes, donor: 3, time (h post infection): 20	3.39 ± 15	0.794 ± 18	7.81 ± 8.2	21.4 ± 38	8.28 ± 14	2.87 ± 13	4.02 ± 17	-1.2 ± 35	-51.7 ± 25	-92.7 ± 6
cell type: primary keratinocytes, donor: 4, time (h post infection): 20	-7.51 ± 14	-5.56 ± 13	-6.93 ± 9.7	-1.76 ± 23	-3.15 ± 15	-3.18 ± 12	6.11 ± 3.7	-25 ± 23	-97.4 ± 3.5	-100 ± 0.14
cell type: primary keratinocytes, donor: 5, time (h post infection): 20	4.93 ± 9.7	5.79 ± 8	3.47 ± 9.8	7.82 ± 5.7	7.36 ± 8.3	5.33 ± 7.5	1.2 ± 4.9	-8.44 ± 7	-91.4 ± 11	-99.966 ± 0.047
